The source of these data is US20260022142A1, “MACROCYCLIC IMMUNOMODULATORS” (Bristol-Myers Squibb Company, priority 2022, published 2026).

Structures are written as SMILES. Bridge positions count the residues as written; N and C are the ends. Square brackets hold non-standard residues; d marks the D form. Peptide text beside a SMILES is read from it. * marks the point of attachment. Bip = N[C@@H](Cc1ccc(-c2ccccc2)cc1)C(=O)O; Phe(3-Me) = Cc1cccc(C[C@H](N)C(=O)O)c1; 4Pal = N[C@@H](Cc1ccncc1)C(=O)O; dDab = NCC[C@@H](N)C(=O)O; Carboxymethyl = O=C(O)C*; Orn = NCCC[C@H](N)C(=O)O; Aun = NCCCCCCCCCCC(=O)O; Dab = NCC[C@H](N)C(=O)O; AEEA = NCCOCCOCC(=O)O

The target of the assay is T1, PD-1/PD-L1 interaction (PE-labeled human PD-L1-Ig binding to Jurkat cell line over-expressing human PD-1) (Homo sapiens, UniProt Q15116).
T1 construct: expressed in transfected cells; host or cells: Jurkat
T1 sequence (Q15116 25-288): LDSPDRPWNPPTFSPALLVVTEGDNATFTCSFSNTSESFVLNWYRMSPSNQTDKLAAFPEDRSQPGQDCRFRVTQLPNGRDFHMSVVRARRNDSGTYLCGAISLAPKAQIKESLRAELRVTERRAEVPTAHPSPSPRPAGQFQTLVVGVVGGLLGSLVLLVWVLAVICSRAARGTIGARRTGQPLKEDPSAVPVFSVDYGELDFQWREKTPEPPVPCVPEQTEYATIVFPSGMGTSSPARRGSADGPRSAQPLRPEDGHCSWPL
Briefly: Jurkat-PD-1 Cell Binding High-Content Screening Assay (CBA). It is filed as cell-based. Particulars: Jurkat cell line over-expressing human PD-1; PE-labeled PD-L1-Ig 20 nM final; read-out: Jurkat hPD1-PDL1 IC50. The method in brief:
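Human PD-L1-Ig carrying a covalent PE label on its Ig tag serves as the probe, applied at 20 nM final to compound-treated (2 h, 37° C) Jurkat-hPD-1 cells in medium with 10% fetal calf serum. After one hour, fixation and nuclear staining precede high-content image analysis.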
Take `Cc1cccc(C[C@@H]2NC(=O)[C@H](CC(=O)O)NC(=O)[C@H](Cc3ccc(OCC(=O)O)cc3)NC(=O)[C@H](Cc3ccc(OCC(=O)O)cc3)NC(=O)CSC[C@@H](C(=O)N[C@@H](CCCN)C(=O)NCCCCCCCCCCC(=O)O)NC(=O)[C@H](CO)NC(=O)[C@H](C(C)C)NC(=O)[C@H](CC(C)C)NC(=O)[C@H](CCN)NC(=O)[C@@H](CC(C)C)NC(=O)[C@H](CCCN)NC(=O)[C@H](C(C)C)NC(=O)[C@H](Cc3ccc(-c4ccccc4)cc3)NC(=O)[C@@H](CC(C)C)NC2=O)c1` [Compound 1141] ({CH2CO}-Y(Carboxymethyl)Y(Carboxymethyl)D[Phe(3-Me)][dL][Bip]V[Orn][dL][Dab]LVSC[Orn][Aun]-OH; thioether N-14): the half-maximal inhibitory concentration (IC50) was 0.041 µM. Take `Cc1cccc(C[C@@H]2NC(=O)[C@H](CC(=O)O)NC(=O)[C@H](Cc3ccc(OCC(=O)O)cc3)NC(=O)[C@H](Cc3ccc(OCC(=O)O)cc3)NC(=O)CSC[C@@H](C(=O)N[C@@H](CCCCN)C(=O)NCCCCCCCCCCC(=O)O)NC(=O)[C@H](CO)NC(=O)[C@H](C(C)C)NC(=O)[C@H](CC(C)C)NC(=O)[C@H](CCN)NC(=O)[C@@H](CC(C)C)NC(=O)[C@H](CCCN)NC(=O)[C@H](C(C)C)NC(=O)[C@H](Cc3ccc(-c4ccccc4)cc3)NC(=O)[C@@H](CC(C)C)NC2=O)c1` [Compound 1142] ({CH2CO}-Y(Carboxymethyl)Y(Carboxymethyl)D[Phe(3-Me)][dL][Bip]V[Orn][dL][Dab]LVSCK[Aun]-OH; thioether N-14): the IC50 is 0.0549 µM. Regarding `Cc1cccc(C[C@@H]2NC(=O)[C@H](CC(=O)O)NC(=O)[C@H](Cc3ccc(OCC(=O)O)cc3)NC(=O)[C@H](Cc3ccc(OCC(=O)O)cc3)NC(=O)CSC[C@@H](C(=O)N[C@H](CCN)C(=O)NCCCCCCCCCCC(=O)O)NC(=O)[C@H](CO)NC(=O)[C@H](C(C)C)NC(=O)[C@H](CC(C)C)NC(=O)[C@H](CCN)NC(=O)[C@@H](CC(C)C)NC(=O)[C@H](CCCN)NC(=O)[C@H](C(C)C)NC(=O)[C@H](Cc3ccc(-c4ccccc4)cc3)NC(=O)[C@@H](CC(C)C)NC2=O)c1` [Compound 1145] ({CH2CO}-Y(Carboxymethyl)Y(Carboxymethyl)D[Phe(3-Me)][dL][Bip]V[Orn][dL][Dab]LVSC[dDab][Aun]-OH; thioether N-14), the IC50 worked out at 0.0261 µM. Next, `Cc1cccc(C[C@@H]2NC(=O)[C@H](CC(=O)O)NC(=O)[C@H](Cc3ccc(OCC(=O)O)cc3)NC(=O)[C@H](Cc3ccc(OCC(=O)O)cc3)NC(=O)CSC[C@@H](C(=O)NCCOCCOCC(=O)NCCCCCCCCCCC(=O)O)NC(=O)[C@H](CO)NC(=O)[C@H](C(C)C)NC(=O)[C@H](CC(C)C)NC(=O)[C@H](CCN)NC(=O)[C@@H](CC(C)C)NC(=O)[C@H](CCCN)NC(=O)[C@H](C(C)C)NC(=O)[C@H](Cc3ccc(-c4ccccc4)cc3)NC(=O)[C@@H](CC(C)C)NC2=O)c1` [Compound 1149] ({CH2CO}-Y(Carboxymethyl)Y(Carboxymethyl)D[Phe(3-Me)][dL][Bip]V[Orn][dL][Dab]LVSC[AEEA][Aun]-OH; thioether N-14): 0.0197 µM. For `CC[C@H](C)[C@@H]1NC(=O)[C@H](Cc2ccc(-c3ccccc3)cc2)NC(=O)[C@H](C(C)C)NC(=O)[C@H](Cc2c[nH]c3ccccc23)NC(=O)[C@H](CC(=O)O)NC(=O)[C@H](Cc2ccc(OCC(=O)O)cc2)NC(=O)[C@H](Cc2ccncc2)NC(=O)CSC[C@@H](C(=O)NCCOCCOCC(=O)NCCCCCCCCCCC(=O)O)NC(=O)[C@H]([C@@H](C)O)NC(=O)[C@H](C(C)C)NC(=O)[C@H](CC(C)C)NC(=O)[C@H](CCN)NC(=O)[C@@H](CC(C)C)NC(=O)[C@H](CCCN)NC1=O` [Compound 1150] ({CH2CO}-[4Pal]Y(Carboxymethyl)DWV[Bip]I[Orn][dL][Dab]LVTC[AEEA][Aun]-OH; thioether N-14), the IC50 worked out at 0.0335 µM.

As usually defined, the IC50 is the concentration that gives 50% inhibition.
